In US20220033448A1, “METHODS FOR AGGREGATION OF PROTEINS” (priority 2011, published 2022):
No end group written: not given here.

Key:
[1] = tested on: negative regulator of genetic competence CIpC/mecB; assay: SOSPA shotgun proteomic analysis of soluble / insoluble fractions; format: cell-based, S.aureus and B.cereus; conditions: C30 treated vs untreated cells
From the text: The aggregation technology is based on the assumption that short amino acid stretches, with a high propensity of aggregation (e.g. assessed by the TANGO score) and that are derived from a target protein, can induce aggregation of that protein. This hypothesis has been confirmed by a shotgun proteomic analysis of the insoluble fraction. If we assume that our aggregator peptides work through specific interaction with its target and causes its aggregation, it is expected that the target enters the insoluble fraction. For this reason we've decided to split the lysate into 2 fractions: insoluble and soluble and compare these with untreated cell fractions. Proteins present in both treated (TC30) and untreated (NT) insoluble fractions were assumed to present a background of non-specific naturally non-soluble proteins. Additionally we've examined soluble fractions of both treated and untreated bacteria and as expected the protein of interest was present only in the untreated fraction. This means that the following criteria for target search were used:
1) potential aggregation targets are proteins obtained from the list of proteins in the Insoluble fraction of C30 treated cells minus proteins in the Insoluble fraction of non-treated cells […]

S. hominis = conditions: S. hominis; planktonic; 18 hours
Description: (§1) Bacteria were grown in a shaking incubator at 37° C. and 160rpm in 50 ml BHI , using individual colonies retrieved from a fresh overnight TSA-sheep blood plate. The cultures were grown to a density of approximately 1×10^8cells/ml and then diluted to 5×10^5 cells/ml in CAMHB (Mc Farland 0.5). Each well contained 100p.I (50p.I of peptide containing MHB plus 50 μl inoculum). The final cell density was 1×10^5 to 5×10^5/ml. After addition of the cell suspension, plates were incubated at 37° C. for 18 to 24 hours. The optical density at 590 nm (OD590) of each well was measured after 5 seconds of shaking the plate using Perkin Elmer spectrophotometer (1420 Multilabel Counter Vicotr 3). […] Each well, where no growth was observed, was also plated on TSA-sheep blood agar plates, incubated at 37° C. overnight and visually inspected.
A microbroth dilution method was used with twofold serial dilutions in CAMHB (according to EMEA guidelines) was used for screening of peptide activity, with concentrations ranging from 0.3 μg/mIto 200 μg/ml.

[2] = tested on: Micrococcus luteus ATCC 9341; assay: MIC, microbroth dilution; conditions: planktonic, 18 hours
Description: as §1

[3] = tested on: Listeria monocytogenes ATCC 11994; assay: MIC, microbroth dilution; conditions: planktonic, 18 hours
Description: as §1

Candida albicans SC5314 = assay: In vivo subcutaneous C. albicans biofilm model in rats (polyurethane catheters, CFU)
Description: In a next step we also investigated a potential inhibitory role of interferor peptide F9 during in vivo C. albicans biofilm development. We used the in vivo subcutaneous C. albicans biofilm model in rats (i.e. in vivo biofilms formed inside polyurethane triple lumen catheter pieces) as further outlined in the materials and methods section. Only one concentration of peptide F9 (i.e. 50 μM) was tested in the experimental conditions. The peptide was administrated ex vivo, during initial attachment of Candida to the substrate (90 min, 37° C.). Afterwards, the catheters were washed and implanted subcutaneously in rats. Biofilms were studied six days post implantation and quantified by CFUs. […]
Polyurethane triple lumen intravenous catheters (2.4 mm diameter) cut into segments of 1 cm (Arrow International Reading, USA) were incubated overnight in FBS at 37° C. […] The skin was disinfected and catheter fragments were removed from under the subcutaneous tissue, washed twice with 1× PBS and quantified or visualized.The effect of peptides promoting the aggregation of Als3p during Candida biofilm development in vivo was characterized, as well. […]
The amount of fungal biofilm biomass formed inside the catheter lumen of in vitro and in vivo explanted catheters was determined by colony forming units (CFU). […] CFUs were counted after two days at 37° C.

[4] = tested on: Candida glabrata ATCC2001; assay: C. glabrata adhesion and biofilm formation on 96-well polystyrene plates (XTT); format: cell-based; conditions: 96-well polystyrene plates in vitro
From the text: The specificity of interferor peptide F9 was investigated for C. albicans as compared to a distant Candida spp., i.e. Candida glabrata ATCC2001, for biofilm formation inhibition in vitro. The beta-aggregation sequence of the F9 peptide ([…] (SEQ ID NO: 71)) is not present in C. glabrata—the most closely related sequence in C. glabrata is […] (SEQ ID NO: 73). […] We tested the effect of F9 against C. glabrata adhesion and biofilm formation on 96-well polystyrene plates in vitro.

Row | Sequence | distribution of the target protein between soluble and insoluble fraction [1] | MIC (S. hominis) | MIC [2] | MIC [3] | mean CFUs ±SD obtained per catheter fragment (Candida albicans SC5314; 50 μM ex vivo during adhesion (90 min, 37° C.), catheters implanted subcutaneously in rats, six days post implantation, control 3.69 ±0.42) | peptide-treated catheters containing less than 2.0 log10 CFU/catheter fragment (Candida albicans SC5314; four out of 20 catheters, 50 μM, rats, six days) | C. glabrata adhesion and biofilm development [4]
1 | RILLGLIRRGSRILLGLIRR [C30] | shifted from soluble into insoluble fraction upon peptide treatment | S. hominis: 3 μg/ml | Micrococcus luteus ATCC 9341: 3 μg/ml | Listeria monocytogenes ATCC 11994: 1.5 μg/ml |  |  | 
2 | RKLLFNLGSRNGIVIVATTR [F9] |  |  |  |  | 2.25 ±1.08 login CFU/catheter fragment | 20% | did not interfere with C. glabrata adhesion and biofilm development
